Source: patent US9630956B2, “Compounds useful as inhibitors of ATR kinase” (Vertex Pharmaceuticals Incorporated, priority 2010, dated 2017)

Tests used:
[1] = biological target: full-length ATR (Homo sapiens (Human), UniProt Q13535); assay: ATR Inhibition Assay (radioactive-phosphate incorporation); format: biochemical; conditions: ATR Inhibition Ki(app); 10 μM ATP, 800 μM target peptide, 5 nM full-length ATR, 25° C.
Experimental: Compounds were screened for their ability to inhibit ATR kinase using a radioactive-phosphate incorporation assay. Assays were carried out in a mixture of 50 mM Tris/HCl (pH 7.5), 10 mM MgCl2 and 1 mM DTT. Final substrate concentrations were 10 μM [γ-33P]ATP (3 mCi 33P ATP/mmol ATP, Perkin Elmer) and 800 μM target peptide ([…]).
Assays were carried out at 25° C. in the presence of 5 nM full-length ATR. An assay stock buffer solution was prepared containing all of the reagents listed above, with the exception of ATP and the test compound of interest. 13.5 μL of the stock solution was placed in a 96 well plate followed by addition of 2 μL of DMSO stock containing serial dilutions of the test compound (typically starting from a final concentration of 15 μM with 3-fold serial dilutions) in duplicate (final DMSO concentration 7%). The plate was pre-incubated for 10 minutes at 25° C. and the reaction initiated by addition of 15 μL [γ-33P]ATP (final concentration 10 μM).
The reaction was stopped after 24 hours by the addition of 30 μL 0.1 M phosphoric acid containing 2 mM ATP. A multiscreen phosphocellulose filter 96-well plate (Millipore, Cat no. MAPHNOB50) was pretreated with 100 μL 0.2M phosphoric acid prior to the addition of 45 μL of the stopped assay mixture. The plate was washed with 5×200 μL 0.2M phosphoric acid. After drying, 100 μL Optiphase ‘SuperMix’ liquid scintillation cocktail (Perkin Elmer) was added to the well prior to scintillation counting (1450 Microbeta Liquid Scintillation Counter, Wallac).
After removing mean background values for all of the data points, Ki(app) data were calculated from non-linear regression analysis of the initial rate data using the Prism software package (GraphPad Prism version 3.0cx for Macintosh, GraphPad Software, San Diego Calif., USA).
Below is a chart showing the ATR Inhibition Ki values of compounds of the disclosure.

[2] = tested on: HCT116 colorectal cancer cells; assay: Cisplatin Sensitization Assay (96h cell viability MTS); format: cell-based; conditions: concentration of compound required to reduce the IC50 of Cisplatin alone by at least 3-fold, 96h MTS
Experimental: Compounds can be screened for their ability to sensitize HCT116 colorectal cancer cells to Cisplatin using a 96h cell viability (MTS) assay. […] Compounds and Cisplatin are then both added simultaneously to the cell media in 2-fold serial dilutions from a top final concentration of 10 μM as a full matrix of concentrations in a final cell volume of 200 μl, and the cells are then incubated at 37° C. in 5% CO2. After 96h, 40 μl of […] (Promega G358a) is added to each well and the cells are incubated for 1 h at 37° C. in 5% CO2.

full-length ATR, sequence (Q13535 whole entry): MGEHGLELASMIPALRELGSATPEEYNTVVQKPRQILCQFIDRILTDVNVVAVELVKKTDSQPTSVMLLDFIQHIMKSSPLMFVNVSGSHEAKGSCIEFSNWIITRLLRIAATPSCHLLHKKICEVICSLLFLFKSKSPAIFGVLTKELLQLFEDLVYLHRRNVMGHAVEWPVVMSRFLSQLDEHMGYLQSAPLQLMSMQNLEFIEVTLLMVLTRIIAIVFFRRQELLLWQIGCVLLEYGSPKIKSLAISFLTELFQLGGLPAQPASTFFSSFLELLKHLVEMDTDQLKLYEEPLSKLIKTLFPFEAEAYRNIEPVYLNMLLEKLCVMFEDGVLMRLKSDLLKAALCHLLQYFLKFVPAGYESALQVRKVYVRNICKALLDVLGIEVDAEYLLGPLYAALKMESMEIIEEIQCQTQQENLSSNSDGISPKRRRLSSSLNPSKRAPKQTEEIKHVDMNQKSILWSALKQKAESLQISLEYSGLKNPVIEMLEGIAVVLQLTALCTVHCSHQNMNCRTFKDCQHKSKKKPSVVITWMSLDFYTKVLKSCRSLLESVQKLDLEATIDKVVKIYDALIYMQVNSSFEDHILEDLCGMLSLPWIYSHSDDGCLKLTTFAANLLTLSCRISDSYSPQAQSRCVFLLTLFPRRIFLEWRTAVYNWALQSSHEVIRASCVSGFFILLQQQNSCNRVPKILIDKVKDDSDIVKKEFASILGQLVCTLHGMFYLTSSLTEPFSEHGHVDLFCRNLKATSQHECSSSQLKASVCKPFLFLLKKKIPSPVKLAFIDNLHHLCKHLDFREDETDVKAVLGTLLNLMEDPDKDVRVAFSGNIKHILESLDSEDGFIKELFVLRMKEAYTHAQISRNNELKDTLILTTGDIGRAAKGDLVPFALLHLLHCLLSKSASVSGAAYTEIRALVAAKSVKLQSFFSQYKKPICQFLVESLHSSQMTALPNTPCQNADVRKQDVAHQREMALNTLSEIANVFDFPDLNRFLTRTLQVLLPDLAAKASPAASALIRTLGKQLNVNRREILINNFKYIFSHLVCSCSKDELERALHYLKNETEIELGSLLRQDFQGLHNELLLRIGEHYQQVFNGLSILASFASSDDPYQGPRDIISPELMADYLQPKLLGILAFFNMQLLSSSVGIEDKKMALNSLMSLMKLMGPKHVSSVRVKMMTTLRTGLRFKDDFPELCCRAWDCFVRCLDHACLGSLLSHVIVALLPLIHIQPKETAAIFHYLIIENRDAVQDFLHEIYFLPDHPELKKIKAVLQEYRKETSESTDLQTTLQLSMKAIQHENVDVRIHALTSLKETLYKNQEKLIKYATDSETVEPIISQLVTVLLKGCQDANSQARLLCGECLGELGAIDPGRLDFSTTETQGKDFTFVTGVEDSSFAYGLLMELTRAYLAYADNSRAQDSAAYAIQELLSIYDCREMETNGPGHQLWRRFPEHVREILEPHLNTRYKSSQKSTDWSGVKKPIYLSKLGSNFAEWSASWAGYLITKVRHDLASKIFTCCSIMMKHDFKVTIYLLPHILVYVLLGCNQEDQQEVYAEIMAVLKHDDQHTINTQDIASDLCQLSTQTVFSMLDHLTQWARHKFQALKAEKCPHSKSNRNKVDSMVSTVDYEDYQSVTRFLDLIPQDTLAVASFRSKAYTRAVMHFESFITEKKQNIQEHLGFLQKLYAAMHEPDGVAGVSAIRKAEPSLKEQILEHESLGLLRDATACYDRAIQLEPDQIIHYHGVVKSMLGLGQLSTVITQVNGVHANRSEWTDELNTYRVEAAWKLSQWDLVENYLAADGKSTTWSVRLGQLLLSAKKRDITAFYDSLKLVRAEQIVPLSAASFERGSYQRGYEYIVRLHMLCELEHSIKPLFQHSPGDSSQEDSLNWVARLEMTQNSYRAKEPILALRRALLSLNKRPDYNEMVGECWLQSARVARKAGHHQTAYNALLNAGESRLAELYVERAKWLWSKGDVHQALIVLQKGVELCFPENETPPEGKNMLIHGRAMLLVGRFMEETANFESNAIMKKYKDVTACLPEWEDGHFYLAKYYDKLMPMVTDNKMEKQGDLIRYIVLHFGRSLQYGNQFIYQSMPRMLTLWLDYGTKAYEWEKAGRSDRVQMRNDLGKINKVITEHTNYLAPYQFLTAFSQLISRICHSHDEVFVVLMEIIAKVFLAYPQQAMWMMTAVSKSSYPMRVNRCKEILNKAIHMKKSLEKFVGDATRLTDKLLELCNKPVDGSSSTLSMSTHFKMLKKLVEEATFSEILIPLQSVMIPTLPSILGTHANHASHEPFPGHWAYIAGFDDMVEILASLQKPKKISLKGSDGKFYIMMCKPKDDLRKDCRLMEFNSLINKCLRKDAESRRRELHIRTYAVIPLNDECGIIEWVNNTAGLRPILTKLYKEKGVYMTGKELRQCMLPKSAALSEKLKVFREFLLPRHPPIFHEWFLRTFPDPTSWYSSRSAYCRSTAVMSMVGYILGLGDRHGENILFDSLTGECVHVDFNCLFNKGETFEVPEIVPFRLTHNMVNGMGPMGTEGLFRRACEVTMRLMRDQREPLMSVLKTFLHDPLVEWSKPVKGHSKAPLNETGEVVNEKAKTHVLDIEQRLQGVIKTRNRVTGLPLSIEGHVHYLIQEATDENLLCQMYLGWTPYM

Row | Compound | Ki [1] [nM] | CP3 shift [2] [µM]
1 | Nc1ncc(-c2ccc(=O)n(C3CCCC3)c2)nc1-c1cc(-c2ccc(CNC3CC3)cc2)no1 [Compound I-92] | ≤ 5 | 0.078
2 | CCC(CC)n1cc(-c2cnc(N)c(-c3cc(-c4cccc(C(C)N)c4)no3)n2)ccc1=O (stereo not drawn) [Compound I-94] | ≤ 5 | 0.007
3 | CC(N)c1cccc(-c2cc(-c3nc(-c4ccc(=O)n(CC5(C)CC5)c4)cnc3N)on2)c1 (stereo not drawn) [Compound I-105] | ≤ 5 | 0.02
4 | CC(N)c1cccc(-c2cc(-c3nc(-c4ccc(=O)n(CC5CC5C)c4)cnc3N)on2)c1 (stereo not drawn) [Compound I-106] | ≤ 5 | 0.039
5 | CNCc1ccc(-c2cc(-c3nc(-c4c[nH]c(=O)c(C5CCCC5)c4)cnc3N)on2)cc1 [Compound I-107] | ≤ 5 | 0.039
6 | CCCC(CC)c1cc(-c2cnc(N)c(-c3cc(-c4ccc(CNC)cc4)no3)n2)c[nH]c1=O (stereo not drawn) [Compound I-116] | ≤ 5 | 0.02
7 | Nc1ncc(-c2c[nH]c(=O)c(C3CCCC3)c2)nc1-c1cc(-c2ccc(CNC3CC3)cc2)no1 [Compound I-119] | ≤ 5 | 0.156
8 | CCCC(CC)c1cc(-c2cnc(N)c(-c3cc(-c4ccc(CNC5CC5)cc4)no3)n2)c[nH]c1=O (stereo not drawn) [Compound I-120] | ≤ 5 | 0.078
9 | CNCc1ccc(-c2cc(-c3nc(-c4c[nH]c(=O)c(-c5ccccc5)c4)cnc3N)on2)cc1 [Compound I-123] | ≤ 5 | 0.078
10 | CC1CCC(n2cc(-c3cnc(N)c(-c4cc(-c5cccc(C(C)N)c5)no4)n3)ccc2=O)C1 (stereo not drawn) [Compound I-124] | ≤ 5 | 0.039
11 | CCC(CC)n1cc(-c2cnc(N)c(-c3cc(-c4ccc(CNCCF)cc4)no3)n2)ccc1=O [Compound I-126] | ≤ 5 | 0.625

More lines, main results first:

Row | Ki [1] [nM] | Compound | CP3 shift [2] [µM]
12 | ≤ 5 | CNCc1ccc(-c2cc(-c3nc(-c4ccc(=O)n(CC5(CO)CC5)c4)cnc3N)on2)cc1 [Compound I-80] | 0.078
13 | ≤ 5 | CCn1cc(-c2cnc(N)c(-c3cc(-c4ccc(CNC)cc4)no3)n2)ccc1=O [Compound I-81] | 0.156
14 | ≤ 5 | CCC(C)n1cc(-c2cnc(N)c(-c3cc(-c4ccc(CNC)cc4)no3)n2)ccc1=O (stereo not drawn) [Compound I-82] | 0.079
15 | ≤ 5 | CCC(CC)n1cc(-c2cnc(N)c(-c3cc(-c4ccc(CNC)cc4)no3)n2)ccc1=O [Compound I-83] | 0.02
16 | ≤ 5 | CNCc1ccc(-c2cc(-c3nc(-c4ccc(=O)n(CC5CCCCO5)c4)cnc3N)on2)cc1 (stereo not drawn) [Compound I-87] | 0.078
17 | ≤ 5 | CCc1cc(-c2cnc(N)c(-c3cc(-c4ccc(CNC)cc4)no3)n2)c[nH]c1=O [Compound I-89] | 0.312
18 | ≤ 5 | CNCc1ccc(-c2cc(-c3nc(-c4c[nH]c(=O)c(Cl)c4)cnc3N)on2)cc1 [Compound I-90] | 0.625
19 | ≤ 5 | CCC(CC)n1cc(-c2cnc(N)c(-c3cc(-c4ccc(CNC5CC5)cc4)no3)n2)ccc1=O [Compound I-93] | 0.02
20 | ≤ 5 | CNCc1ccc(-c2cc(-c3nc(-c4ccc(=O)n(CCC5CC5)c4)cnc3N)on2)cc1 [Compound I-96] | 0.078
21 | ≤ 5 | CC[C@H](C)Cn1cc(-c2cnc(N)c(-c3cc(-c4ccc(CNC)cc4)no3)n2)ccc1=O [Compound I-97] | 0.078
22 | ≤ 5 | CNCc1ccc(-c2cc(-c3nc(-c4ccc(=O)n(C(C)C(=O)N5CCCC5)c4)cnc3N)on2)cc1 (stereo not drawn) [Compound I-102] | 0.078
23 | ≤ 5 | CNCc1ccc(-c2cc(-c3nc(-c4ccc(=O)n(CCC5CCCC5)c4)cnc3N)on2)cc1 [Compound I-122] | 0.078
24 | ≤ 5 | CNCc1ccc(-c2cc(-c3nc(-c4ccc(=O)n(C(C)(C)C#N)c4)cnc3N)on2)cc1 [Compound I-125] | 0.015
